Reference: patent EP1247448A2 (priority 1998, dated 1999)
Values joined by “and” are separate entries in the source; they are usually repeats but may differ in a detail not shown here. Equal values may be shown once. Read-outs that look alike come from different tables or passages of the source.

Legend:
Phytophthora capsici = Phytophthora capsici colony growth inhibition on potato dextrose agar (Examples 1 and 2); assay type: cell-based, Phytophthora capsici (ATCC 15399)
Cucumber Downy Mildew [1] = system: Cucumber Downy Mildew; parameters: species or system Pseudoperonospora cubensis; conditions: in vivo
[2] = system: Phytophthora infestans on potatoes (PLB); assay type: in vivo; conditions: Table 5b
Tomato Late Blight [3] = assay type: in vivo, Phytophthora infestans; conditions: Table 6a
[4] = system: grape downy mildew, Plasmopara viticola; experiment: Grape downy mildew control on Delaware grapes (Example 6b); assay type: in vivo; conditions: Table 6b
Method: Tissue culture produced from Delaware grapes were sprayed with the fungicides. Inoculation with grape downy mildew (GDM) spores having a concentration of 40,000 spores ml was conducted 1 day after the application. Plants were placed in a mist chamber for 24 hrs and then moved to a control temperature chamber for the remainder of the test period. Table 6b -

[5] = system: tomato late blight (TLB), Phytophthora infestans; assay type: in vivo; conditions: for TLB obs. % Control: Table 3a
Cucumber Downy Mildew [6] = experiment: Cucumber downy mildew control on cucumber plants (Example 4); assay type: in vivo, Pseudoperonospora cubensis; conditions: Table 4b
Tomato Late Blight [7] = assay type: in vivo, Phytophthora infestans; conditions: Table 4a

## O.O.O.O.O.O=S(=O)([O-])[O-].[Cu+2] [Compound D, CuSO4·5H2O, reference compound]
Phytophthora capsici; Table 2, Compound D 100 ppm, Compound A 0 ppm
  % Inhibition (Observed): 15.6%
Phytophthora capsici; Table 2, Compound D 200 ppm, Compound A 0 ppm
  % Inhibition (Observed): 47.0%
Phytophthora capsici; Table 2, Compound D 300 ppm, Compound A 0 ppm
  % Inhibition (Observed): 59.2%

## O=C1c2ccccc2C(=O)N1SC(Cl)(Cl)Cl [Cmpd. G, Folpet, reference compound]
Cucumber Downy Mildew [1]
  Number of Infection Sites: 16 and 22.2 and 19.2
[2]; 0.225 Kg ai/ha
  % Control Observed: 0%
[2]; 0.45 Kg ai/ha
  % Control Observed: 3.5%

## O=[N+]([O-])c1cc(C(F)(F)F)c(Cl)c([N+](=O)[O-])c1Nc1ncc(C(F)(F)F)cc1Cl [Cmpd. H, Fluazinam, reference compound]
Tomato Late Blight [3]; 0.125 Kg ai/ha
  % Control Observed: 20%
  % Infection: 64%
[4]; Cmpd. H 0.006 Kg ai/ha
  % Control Observed: 52%

## CCO[PH](=O)O [Cmpd. E, Fosetyl-aluminum, reference compound]
[5]; 0.112 kg ai/ha
  TLB obs. % Control: 30.9%
[5]; 0.225 kg ai/ha
  TLB obs. % Control: 14.3%
[5]; 0.45 kg ai/ha
  TLB obs. % Control: 57.1%
[5]; 0.9 kg ai/ha
  TLB obs. % Control: 54.8%

## CCC(C)(NC(=O)c1cc(Cl)c(C)c(Cl)c1)C(=O)CCl (stereo not shown) [Compound A, N-[3'-(1'-chloro-3'-methyl-2'-oxopentan)]-3,5-dichloro-4-methylbenzamide]
Tomato Late Blight [3]; 0.025 Kg ai/ha
  % Control Observed: 84%
  % Infection: 13.2%
[5]; Example 3a, alone at all rates tested
  control of tomato late blight: ≥ 95%
[5]; 0.0125 kg ai/ha
  TLB obs. % Control: 97.1%
[5]; 0.025 kg ai/ha
  TLB obs. % Control: 96.7%
[5]; 0.05 kg ai/ha
  TLB obs. % Control: 96.7%
[5]; 0.1 kg ai/ha
  TLB obs. % Control: 97.1%
Cucumber Downy Mildew [1]
  % Control Observed: 74.3% and 84.8% and 98.1%
Cucumber Downy Mildew [6]; 0.006 Kg ai/ha
  % Control Observed: 56%
Cucumber Downy Mildew [6]; 0.012 Kg ai/ha
  % Control Observed: 33%
Cucumber Downy Mildew [6]; 0.025 Kg ai/ha
  % Control Observed: 45%
Phytophthora capsici; Table 1, Compound A 0.2 ppm, Compound C 0 ppm
  % Inhibition (Observed): 34.1%
Phytophthora capsici; Table 1, Compound A 0.3 ppm, Compound C 0 ppm
  % Inhibition (Observed): 52.8%
Phytophthora capsici; Table 2, Compound A 0.1 ppm, Compound D 0 ppm
  % Inhibition (Observed): 21.6%
Phytophthora capsici; Table 2, Compound A 0.2 ppm, Compound D 0 ppm
  % Inhibition (Observed): 31.0%
Phytophthora capsici; Table 2, Compound A 0.3 ppm, Compound D 0 ppm
  % Inhibition (Observed): 44.0%
[2]; 0.05 Kg ai/ha
  % Control Observed: 12%
[2]; 0.10 Kg ai/ha
  % Control Observed: 16%
Tomato Late Blight [7]; 0.006 Kg ai/ha
  % Control Observed: 23%
Tomato Late Blight [7]; 0.012 Kg ai/ha
  % Control Observed: 20%
Tomato Late Blight [7]; 0.025 Kg ai/ha
  % Control Observed: 36%
[4]; Cmpd. A 0.006 Kg ai/ha
  % Control Observed: 22%

## CCCOC(=O)NCCCN(C)C [Cmpd. F, Propamocarb, reference compound]
Cucumber Downy Mildew [6]; 0.063 Kg ai/ha
  % Control Observed: 9%
Cucumber Downy Mildew [6]; 0.125 Kg ai/ha
  % Control Observed: 0%
Cucumber Downy Mildew [6]; 0.25 Kg ai/ha
  % Control Observed: 27%
Tomato Late Blight [7]; 0.063 Kg ai/ha
  % Control Observed: 0%
Tomato Late Blight [7]; 0.125 Kg ai/ha
  % Control Observed: 3%
Tomato Late Blight [7]; 0.25 Kg ai/ha
  % Control Observed: 17%

## OP(O)O [Compound C, Phosphorous Acid, reference compound]
Phytophthora capsici; Table 1, Compound C 70 ppm, Compound A 0 ppm
  % Inhibition (Observed): 48.3%
Phytophthora capsici; Table 1, Compound C 100 ppm, Compound A 0 ppm
  % Inhibition (Observed): 72.1%
